In patent US12662489B2 (Sitryx Therapeutics Limited, priority 2023, dated 2026):

Key:
[1] = target: T1, MTHFD1 recombinant human enzyme (Homo sapiens, UniProt P11586); assay: MTHFD1 inhibition assay (NAD(P)H-Glo luminescence); conditions: MTHFD1 IC50, recombinant human enzyme 200 nM, NADP, band
T1 sequence (P11586 2-291 limits assumed): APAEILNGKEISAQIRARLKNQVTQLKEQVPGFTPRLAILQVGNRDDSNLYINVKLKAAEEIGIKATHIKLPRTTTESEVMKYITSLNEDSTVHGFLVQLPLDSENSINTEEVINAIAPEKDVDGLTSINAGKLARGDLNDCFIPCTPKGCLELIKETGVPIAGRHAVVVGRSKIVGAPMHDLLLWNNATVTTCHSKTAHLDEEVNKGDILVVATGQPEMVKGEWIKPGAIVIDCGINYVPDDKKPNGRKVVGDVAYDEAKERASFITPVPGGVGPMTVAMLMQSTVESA

[2] = target: T2, MTHFD2 recombinant human enzyme (Homo sapiens, UniProt P13995); assay: MTHFD2 inhibition assay (NAD(P)H-Glo luminescence); conditions: for MTHFD1/MTHFD2 IC50 ratio: selectivity of MTHFD2 inhibition over MTHFD1, band
T2 sequence (P13995 36-350): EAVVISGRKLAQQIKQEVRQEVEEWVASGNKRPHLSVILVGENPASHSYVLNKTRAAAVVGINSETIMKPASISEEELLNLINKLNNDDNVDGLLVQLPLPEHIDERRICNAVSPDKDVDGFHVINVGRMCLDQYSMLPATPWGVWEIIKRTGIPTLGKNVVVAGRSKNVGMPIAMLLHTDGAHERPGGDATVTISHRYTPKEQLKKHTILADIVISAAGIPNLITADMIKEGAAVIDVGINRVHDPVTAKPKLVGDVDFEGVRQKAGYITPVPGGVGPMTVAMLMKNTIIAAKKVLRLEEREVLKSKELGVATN

SMILES | IC50 [1] [nM] | IC50 [2] [nM] | MTHFD1/MTHFD2 IC50 ratio [2]
COC[C@H]1CN(c2ccc3c4c(c(=O)oc3c2C)CN(C(=O)c2cc(N(C)C)c(C(=O)NS(=O)(=O)N3C5CCC3CC5)cc2F)CC4)CCN1C [Example 188, (R)-N-((7-azabicyclo[2.2.1]heptan-7-yl)sulfonyl)-2-(dimethylamino)-5-fluoro-4-(8-(3-(methoxymethyl)-4-methylpiperazin-1-yl)-7-methyl-5-oxo-1,3,4,5-tetrahydro-2H-chromeno[3,4-c]pyridine-3-carbonyl)benzamide] | 1000 to 5000 | 10 to 100 | H (>9.0 to 30)
COC[C@H]1CN(c2ccc3c4c(c(=O)oc3c2C)CN(C(=O)c2c(C)cc(C(=O)NS(=O)(=O)N3CCCC3)c(OC3CCC3)c2F)CC4)CCN1C [Example 140, (R)-2-cyclobutoxy-3-fluoro-4-(8-(3-(methoxymethyl)-4-methylpiperazin-1-yl)-7-methyl-5-oxo-1,3,4,5-tetrahydro-2H-chromeno[3,4-c]pyridine-3-carbonyl)-5-methyl-N-(pyrrolidin-1-ylsulfonyl) benzamide] | 100 to 1000 | 100 to 1000 | F (<3)
COC[C@H]1CN(c2ccc3c4c(c(=O)oc3c2Cl)CN(C(=O)c2ccc(C(=O)NS(=O)(=O)N(C)C(C)C)c(O[C@@H]3C[C@@H]5C[C@@H]5C3)c2F)CC4)CCN1C [Example 65, 2-(((1R,3r,5S)-bicyclo[3.1.0]hexan-3-yl)oxy)-4-(7-chloro-8-((R)-3-(methoxymethyl)-4-methylpiperazin-1-yl)-5-oxo-1,3,4,5-tetrahydro-2H-chromeno[3,4-c]pyridine-3-carbonyl)-3-fluoro-N-(N-isopropyl-N-methylsulfamoyl)benzamide] | 1 to 10 | 10 to 100 | F (<3)
COC[C@H]1CN(c2ccc3c4c(c(=O)oc3c2C)CN(C(=O)c2ccc(C(=O)NS(=O)(=O)N3C5CCC3CC5)c(OC3CCC3)c2F)CC4)CCN1C [Example 176, (R)—N-((7-azabicyclo[2.2.1]heptan-7-yl)sulfonyl)-2-cyclobutoxy-3-fluoro-4-(8-(3-(methoxymethyl)-4-methylpiperazin-1-yl)-7-methyl-5-oxo-1,3,4,5-tetrahydro-2H-chromeno[3,4-c]pyridine-3-carbonyl)benzamide] | 10 to 100 | 10 to 100 | F (<3)
COC[C@H]1CN(c2ccc3c4c(c(=O)oc3c2)CN(C(=O)c2ccc(C(=O)NS(=O)(=O)N3CCCC3)c(OC3CCCC3)c2F)CC4)CCN1C [Example 183, (R)-2-(cyclopentyloxy)-3-fluoro-4-(8-(3-(methoxymethyl)-4-methylpiperazin-1-yl)-5-oxo-1,3,4,5-tetrahydro-2H-chromeno[3,4-c]pyridine-3-carbonyl)-N-(pyrrolidin-1-ylsulfonyl)benzamide] | > 5000 | 100 to 1000 | H (>9.0 to 30)
COC[C@H]1CN(c2ccc3c4c(c(=O)oc3c2Cl)CN(C(=O)c2ccc(C(=O)NS(=O)(=O)N(C)C(C)C)c(OC3CCCC3)c2F)CC4)CCN1C [Example 29, (R)-4-(7-chloro-8-(3-(methoxymethyl)-4-methylpiperazin-1-yl)-5-oxo-1,3,4,5-tetrahydro-2H-chromeno[3,4-c]pyridine-3-carbonyl)-2-(cyclopentyloxy)-3-fluoro-N-(N-isopropyl-N-methylsulfamoyl)benzamide] | 10 to 100 | 10 to 100 | F (<3)

Continued, values first:

IC50 [1] [nM] | IC50 [2] [nM] | MTHFD1/MTHFD2 IC50 ratio [2] | SMILES
> 5000 | 100 to 1000 | H (>9.0 to 30) | COC[C@H]1CN(c2cc(C)c3c4c(c(=O)oc3c2C)CN(C(=O)c2cc(N(C)C)c(C(=O)NS(=O)(=O)C3(C)CC3)cc2C(F)(F)F)CC4)CCN1C [Example 159, (R)-2-(dimethylamino)-4-(8-(3-(methoxymethyl)-4-methylpiperazin-1-yl)-7,10-dimethyl-5-oxo-1,3,4,5-tetrahydro-2H-chromeno[3,4-c]pyridine-3-carbonyl)-N-((1-methylcyclopropyl)sulfonyl)-5-(trifluoromethyl)benzamide]
10 to 100 | 10 to 100 | G (^ 3 to 9.0) | CCOc1c(C(=O)NS(=O)(=O)N2CCCCC2)ccc(C(=O)N2CCc3c(c(=O)oc4c(C)c(N5CCN(C)[C@@H](COC)C5)cc(C)c34)C2)c1F [Example 197, (R)-2-ethoxy-3-fluoro-4-(8-(3-(methoxymethyl)-4-methylpiperazin-1-yl)-7,10-dimethyl-5-oxo-1,3,4,5-tetrahydro-2H-chromeno[3,4-c]pyridine-3-carbonyl)-N-(piperidin-1-ylsulfonyl)benzamide]
100 to 1000 | 10 to 100 | H (>9.0 to 30) | COC[C@H]1CN(c2cc(C)c3c4c(c(=O)oc3c2C)CN(C(=O)c2cc(N(C)C)c(C(=O)NS(=O)(=O)N3CCC[C@@H]3C(F)(F)F)cc2F)CC4)CCN1C [Example 287, 2-(dimethylamino)-5-fluoro-4-(8-((R)-3-(methoxymethyl)-4-methylpiperazin-1-yl)-7,10-dimethyl-5-oxo-1,3,4,5-tetrahydro-2H-chromeno[3,4-c]pyridine-3-carbonyl)-N-(((R)-2-(trifluoromethyl)pyrrolidin-1-yl)sulfonyl)benzamide]
100 to 1000 | 10 to 100 | H (>9.0 to 30) | COC[C@H]1CN(c2cc(C)c3c4c(c(=O)oc3c2C)CN(C(=O)c2cc(C)c(C(=O)NS(=O)(=O)N(C)C)c(N3CCCC3)c2)CC4)CCN1C [Example 106, (R)-N-(N,N-dimethylsulfamoyl)-4-(8-(3-(methoxymethyl)-4-methylpiperazin-1-yl)-7,10-dimethyl-5-oxo-1,3,4,5-tetrahydro-2H-chromeno[3,4-c]pyridine-3-carbonyl)-2-methyl-6-(pyrrolidin-1-yl)benzamide]
> 5000 | 100 to 1000 | G (^ 3 to 9.0) | COC[C@H]1CN(c2ccc3c4c(c(=O)oc3c2C)CN(C(=O)c2cc(N3CC5CC5C3)c(C(=O)NS(=O)(=O)N3CCCC3)c(C(F)(F)F)c2)CC4)CCN1C (stereo partly drawn) [Example 112, 2-(3-azabicyclo[3.1.0]hexan-3-yl)-4-(8-((R)-3-(methoxymethyl)-4-methylpiperazin-1-yl)-7-methyl-5-oxo-1,3,4,5-tetrahydro-2H-chromeno[3,4-c]pyridine-3-carbonyl)-N-(pyrrolidin-1-ylsulfonyl)-6-(trifluoromethyl)benzamide]
100 to 1000 | 10 to 100 | G (^ 3 to 9.0) | COC[C@H]1CN(c2cc(Cl)c3c4c(c(=O)oc3c2C)CN(C(=O)c2cc(N(C)C)c(C(=O)NS(=O)(=O)N3CCCCC3)cc2F)CC4)CCN1C [Example 275, (R)-4-(10-chloro-8-(3-(methoxymethyl)-4-methylpiperazin-1-yl)-7-methyl-5-oxo-1,3,4,5-tetrahydro-2H-chromeno[3,4-c]pyridine-3-carbonyl)-2-(dimethylamino)-5-fluoro-N-(piperidin-1-ylsulfonyl)benzamide]
10 to 100 | 1 to 10 | – | COC[C@H]1CN(c2cc(C)c3c4c(c(=O)oc3c2C)CN(C(=O)c2ccc(C(=O)NS(=O)(=O)C3(C)CC3)c(N3CC5CC5C3)c2F)CC4)CCN1C (stereo partly drawn) [Example 71, 2-(3-azabicyclo[3.1.0]hexan-3-yl)-3-fluoro-4-(8-((R)-3-(methoxymethyl)-4-methylpiperazin-1-yl)-7,10-dimethyl-5-oxo-1,3,4,5-tetrahydro-2H-chromeno[3,4-c]pyridine-3-carbonyl)-N-((1-methylcyclopropyl)sulfonyl)benzamide]
